Source: US9840532B2, “5′-substituted nucleoside compounds” (Eli Lilly and Company, priority 2015, dated 2017)

Experiments:
A375 cells = assay: Protocol Proliferation 7-day (CELL TITER-GLO); assay type: cell-based; details: Homo sapiens, A-375, 168 h, 7 days, Mean ± SEM
Protocol: The purpose of this assay is to measure the ability of test compounds to inhibit proliferation of cancer cells.
On day 1, plate A375 cells (ATCC, DMEM high glucose/10% Hi FBS) at 250 cells/well (100 μL/well) in a 96-well assay plate (BD Falcon 35-3219). Incubate the plates in a 37° C. incubator (5% CO2) for 18-24 hr. On day 2, prepare and serially dilute test compounds in medium (1:2 10-point serial dilution) from compound stock solutions (10 mM in 100% DMSO). Add 10 μL of serial diluted test compounds to cell plates (0.2% DMSO final concentration). Add 10 μL of reference compound (Example 1) to column 1 of cell plates (20 μM final, 0.2% DMSO). Incubate cell plates at 37° C./5% CO2 for 7 days. On day nine, thaw the CELL TITER-GLO® (Promega #G7571) buffer and equilibrate to room temperature prior to use. Also, equilibrate the lyophilized CELL TITER-GLO® substrate to room temperature prior to use. Transfer CELL TITER-GLO® buffer to an amber substrate bottle to reconstitute the lyophilized enzyme/substrate mixture to form the CELL TITER-GLO® reagent. Equilibrate the cell plate(s) to room temperature for […] Gently remove media in cell plates by flicking and blotting on a stack of paper towels. Add CELL TITER-GLO® reagent (25 μL) to each well. Incubate plates for […] at room temperature before reading. Measure luminescence using PERKIN-ELMER® ENVISION® Multi-label Plate Reader. Analyze this luminescence data by a 4-parameter curve fit using Activity Base, to yield cell proliferation IC50 values.

MDM4 and SmD1-me2S = assay: Mouse A375 Tumor Xenograft MDM4 and SmD1-me2S Western Blot Assay; assay type: in vivo; details: A-375, PO given QD or BID, tumors 4 hr after last dose, 4 days of dosing, read-out: dose achieving 50% effect (ED50)
Protocol: Grow A375 cells in medium (DMEM high glucose/10% Hi FBS) at 37° C. in an incubator (5% CO2) for 18-24 hr. Mix the cells with MATRIGEL® (1:1) and implant the cells (5×10^6/animal) subcutaneously into the rear flank of the mice (female nude mice, Harlan). The implanted tumor cells grow as solid tumors. Measure the tumor volume and body weight twice a week with a caliper. After tumor volume reaches approximately 200-250 mm^3 (about 20 days after implant), randomize the animals, and group them into compound treatment groups. Administer the test compounds (formulated in SWFI with 1% HEC/0.25% TWEEN® 80/0.05% Antifoam) by oral gavage. Test compound doses are in the range of 3 to 100 mg/kg. Sacrifice mice 4 hr after the last dose (4 days of dosing).
Mouse A375 Tumor Xenograft MDM4 and SmD1-me2S Western Blot Assay
For western blotting, homogenize the tumor tissues as performed above in 500 μL of kit XY lysis buffer including protease inhibitor cocktail complete Mini (Roche, cat. #: 11 836 170 001) [this cocktail contains […] Trypsin-Chymotrypsin Inhibitor (Sigma cat. # T9777); 10 μg/mL TPCK (Sigma cat. # T4376); 10 μg/mL Aprotinin (Sigma cat. # A1153); 60 mM Beta-Glycerophosphate disodium salt hydrate (Sigma cat. # G9891); 1% TRITON™ X-100 (Sigma cat. # T9284); 25 mM Tris pH ˜7.5 (INVITROGEN™ cat. #15567-027); 2.5 mM sodium pyrophosphate dibasic (Fluka cat. #71501); 300 mM […] (Mallinckrodt cat. #7581); 2 mM TAME (Sigma cat. # T4626); 15 mM pNPP (pNPP disodium salt hexahydrate, Sigma cat. #P4744); 5 mM benzamidine hydrochloride hydrate (Sigma cat. #B6506); 10 mM sodium fluoride (Sigma cat. #S-7920); 1 mM sodium metavanadate anhydrous (Sigma cat. #59088); […]. 1 mM DTT (Sigma cat. # D9779); 15 mM EDTA pH ˜8.0 (INVITROGEN™ cat. #15575020); 5 mM EGTA pH ˜8.0 (Sigma cat. #E3889); […] (Fisher/Axxora cat. # A350012m001); 0.25 mM Pefa Bloc (Sigma cat. #76307). Spin the protein lysates down at 8,000 rpm for 10 min and transfer supernatants to 1.5 mL tubes for sonication (amplitude 25% yield) for 15 seconds. […]

Row | IC50 (A375 cells) [nM] | Compound | ED50 (MDM4 and SmD1-me2S) [mg/kg]
1 | 10.8 | Nc1ncnc2c1ccn2[C@@H]1O[C@H]([C@H](O)c2ccc(Cl)cc2)[C@@H](O)[C@H]1O [Example 1, (2R,3R,4S,5R)-2-(4-Aminopyrrolo[2,3-d]pyrimidin-7-yl)-5-[(R)-(4-chlorophenyl)-hydroxy-methyl]tetrahydrofuran-3,4-diol] | ≤ 30
2 | 44 | C[C@@](O)(c1ccc(Cl)cc1)[C@H]1O[C@@H](n2ccc3c(N)ncnc32)[C@H](O)[C@@H]1O [Example 3, (2R,3R,4S,5S)-2-(4-Aminopyrrolo[2,3-d]pyrimidin-7-yl)-5-[(1R)-1-(4-chlorophenyl)-1-hydroxy-ethyl]tetrahydrofuran-3,4-diol] | ≤ 30

Row | Compound | IC50 (A375 cells) [nM] | ED50 (MDM4 and SmD1-me2S) [mg/kg]
3 | Nc1ncnc2c1ccn2[C@@H]1O[C@H]([C@H](O)c2ccccc2)[C@@H](O)[C@H]1O [Example 2, (2R,3R,4S,5R)-2-(4-Aminopyrrolo[2,3-d]pyrimidin-7-yl)-5[(R)-hydroxy(phenyl)methyl]tetrahydrofuran-3,4-diol] | 31.5 | ≤ 30
